{"source": "patent US20230076977A1", "about": "“UTROPHIN UPREGULATION COMPOUNDS FOR DUCHENNE MUSCULAR DYSTROPHY THERAPY” (THE TRUSTEES OF THE UNIVERSITY OF PENNSYLVANIA, priority 2020, published 2023)", "key": {"[1]": {"system": "C2C12 cells", "assay": "Cytotoxicity in C2C12 cells treated with increasing TSA concentrations", "assay_type": "cell-based", "settings": "24 hours", "description": "(§1) TSA is a broad-spectrum HDAC inhibitor. […] To further validate in vitro the dose-dependent capacity of TSA to upregulate utrophin protein, C2C12 cells were treated for 24 hours with increasing concentrations of TSA (from 1 nM to 10 μM) (FIG. 3B). Consistent with the single-dose western blot validation experiments, utrophin protein levels were increased 4.3 times by 1 μM TSA. […] Some cytotoxicity was evident for TSA concentrations higher than 1 μM."}, "[2]": {"system": "utrophin protein in C2C12 cells", "assay": "Utrophin western blot in C2C12 cells (endogenous protein expression)", "assay_type": "cell-based", "settings": "24 hours", "description": "The 10 highest scoring hits were selected from this subset for performing in vitro validation. C2C12 cells were treated with 1 μM concentrations of the selected hits for 24 hours, followed by western blot evaluation of utrophin levels as an orthogonal assay for endogenous protein expression. […] Panobinostat, an FDA-approved non-selective HDAC inhibitor for cancer treatment, increased utrophin levels by 1.9-fold. […] AR-42 (S2244), another HDAC inhibitor with proven preclinical efficacy in contrasting cancer-induced cachexia, increased utrophin by 2.3-fold and had the second highest H2LPS. Consistent with the calculated HPS, the highest scoring hit, TSA (S1045), had also the highest magnitude of protein upregulation (3.9-fold) followed by PCI-24781 (S1090; 3.7-fold). Importantly, high H2LPS was generally correlated with confirmation in WB assays (FIG. 2E).\n(§2) Total RNA was extracted from TA muscle samples with RNAeasy kit (Qiagen, USA) and reverse transcribed with random hexamers. qPCR was performed using Taqman probes for Utrophin (Assay ID Mm01168846_ml) and β-actin. Muscle tissue samples were lysed with TNEC buffer (50 mM Tris-HCl, pH 8.0; 150 mMNaCl; 1% NP40; 2 mM EDTA) buffer containing complete protease inhibitor cocktail (Roche, Basel, Switzerland). C2C12 cells were treated for 24 h with 1 μM concentrations of compounds from a fresh batch (3 wells for each compound), and cell samples were lysed with RIPA buffer with protease inhibitor cocktail. The experiment was repeated three independent times. 50-75 μg of total proteins from muscle tissues, or 4 μg of cell protein extracts, were resolved on a 3-8% Tris-Acetate gradient gel (NuPage; Invitrogen), transferred to PDVF or nitrocellulose membranes and mouse monoclonal anti-utrophin antibody MANCHO3 clone 8A4 (developed by Glenn E. Morris and obtained from the Developmental Studies Hybridoma Bank, Iowa) or a custom-made anti-UtrophinA rabbit polyclonal antibody (muscle tissue samples) generated and described previously by Chakkalakal et al., Nucleic Acids Res. 36, 826-838 (2008), which is incorporated herein by reference in its entirety.\nas §1"}, "[3]": {"system": "CMV-driven luciferase gene", "assay": "Counterscreening assay: C2C12 line stably expressing only the CMV-driven luciferase gene", "assay_type": "cell-based", "settings": "Mus musculus, C2C12, read-out: counterscreening EC50", "description": "(§3) The construct for the HTS assay was generated by cloning the 5′- and 3′-UTRs of human utrophin into pGL4:50-hygro (Promega, Madison, Wis.) at the 5′ and 3′ of the luciferase coding sequence and has been described previously by Moorwood. […] For the counterscreening assay, the pGL4:50-hygro plasmid was used alone. Low passage C2C12 cells obtained from ATCC were transfected with either constructs, stably selected with 500 μg/mL hygromycin and subcloned using two rounds of serial dilutions to isolate single cell-derived colonies in a 96 wells plate format. […] The selected clones were cultured in presence of 100 μg/mL hygromycin B and were transferred to the HTS Facility at the University of Pennsylvania for implementation into a 384-wells format suitable for HTS.\n(§4) The construct for generating the screening C2C12 cell line carrying the 5′ and 3′UTR of the human utrophin gene is described by Moorwood. […] Some compounds could increase light emission independently from the 5′ and 3′UTR regions, i.e., by activating the CMV promoter or increasing overall mRNA synthesis. Therefore, in order to distinguish such compounds, a counterscreening cell line stably expressing only the CMV-driven luciferase gene was generated (FIG. 1A). To determine optimal conditions for the implementation in a 384-wells high-throughput format, evaluated were DMSO tolerance, optimal cell density and incubation time (FIG. 5A-5C).\n(§5) A first criterion for evaluating the performance of the selected hits was whether their activity was dose-dependent. After performing a dose-response analysis (5 nM to 10 μM) of each hit in the screening cell line, a clustering approach was applied (complete linkage with Euclidean distance measurement) to highlight similarities between compounds profiles. […] By modeling each dose-response trace with a 4-parameter logistic model applied to the Z— score values (FIG. 2B), the EC50 of each molecule was calculated.\n(§6) Cells were allowed to attach overnight at 37° C., 5% CO2 in a humidified chamber. […] Compounds were added to a final concentration of 1 μM and 100 nM in 0.2% DMSO. Columns 1 and 23 were treated with 0.2% DMSO (negative control). Columns 2 and 24 were treated with 100 nM Panobinostat (positive control). Cells were incubated for 24 hours at 37° C., 5% CO2. […] Luminescence was measured on an EnVisionXcite Multilabel Plate Reader (PerkinElmer), using ultrasensitive luminescence measurement technology."}, "[4]": {"system": "mdx mouse model of DMD", "assay": "Preclinical TSA treatment in the mdx mouse model of DMD", "assay_type": "in vivo", "description": "Four-week-old mdx mice (C57BL/10ScSn-DMDmdx/J) were injected intraperitoneally on alternate days with Trichostatin A (Wako Chemicals USA-Inc, Richmond, Va.; dose 30 μg/kg), or an equal volume of sterile PBS for three months. All animal experiments were approved by the Institutional Animal Care and Use Committee at the University of Pennsylvania School of Medicine.\nFunctional in vivo and ex vivo analyses including rotarod, EDL strength, and sensitivity to damage induced by lengthening contractions (ECC), were performed as described by Krag, et al. Proc. Natl. Acad. Sci. U.S.A. 101, 13856-13860 (2004) and Bogdanovich, S. et al. Functional improvement of dystrophic muscle by myostatin blockade. Nature 420, 418-421 (2002), each of which is incorporated herein by reference in its entirety. Following the procedure, muscles were flash-frozen in liquid nitrogen-cooled isopentane and stored at −80° C.\nas §2\nTo test the ability of TSA to increase utrophin in vivo and improve the dystrophic phenotype, 4 week-old mdx mice were treated with i.p. injections of 30 μg/kg body weight TSA, on alternating days for a total of 3 months."}, "[5]": {"system": "5′- and 3′-UTRs of human utrophin", "assay": "Screening assay: C2C12 stable reporter line, CMV-driven luciferase flanked by utrophin 5′ and 3′ UTRs", "assay_type": "cell-based", "settings": "for EC50: C2C12", "description": "as §3, §4, §5, §6"}, "[6]": {"system": "HDAC activity and proliferation of cancer cells", "settings": "depending on the particular cell line; cited from earlier work"}, "[7]": {"settings": "ex vivo EDL, treated mdx, normalized by cross sectional area"}, "[8]": {"settings": "treated mdx, TSA 30 μg/kg i.p. alternate days, 3 months"}}, "note": "Where two headings read alike, the source gives them in different places."}
{"smiles": "CC(/C=C/C(=O)NO)=C\\[C@@H](C)C(=O)c1ccc(N(C)C)cc1", "note": "[Trichostatin A]", "values": [{"measurement": "concentrations at which some cytotoxicity was evident", "setting": "[1]", "value": "higher than 1 μM"}, {"measurement": "Utrophin protein levels, fold increase", "setting": "[2]; 1 μM, normalized to tubulin, vs 0.1% DMSO control", "value": 3.9, "unit": "fold"}, {"measurement": "EC50", "setting": "[2]; Mus musculus, C2C12, 1 nM to 10 μM, read-out: EC50 for utrophin protein levels", "value": 0.088, "unit": "µM"}, {"measurement": "utrophin protein levels increased", "setting": "[2]; dose-response western blot, 1 μM TSA", "value": 4.3, "unit": "times"}, {"measurement": "EC50", "setting": "[3]", "value": 1.3, "unit": "µM"}, {"measurement": "ECC force drop 1-5", "setting": "[4]; EDL, 5 consecutive eccentric contractions, treated mdx", "value": "25.81 ± 4.46", "unit": "%"}, {"measurement": "less force lost than control-treated muscles after the 5th ECC", "setting": "[4]; EDL, series of 5 ECCs, FIG. 4G", "value": 37, "unit": "%"}, {"measurement": "Utrophin mRNA levels increased", "setting": "[4]; TA muscle, qPCR, after TSA treatment", "value": 4.9, "unit": "fold"}, {"measurement": "utrophin protein levels increased", "setting": "[4]; TA muscle, western blot, after TSA treatment", "value": 2, "unit": "fold"}, {"measurement": "myostatin or follistatin gene expression", "setting": "[4]; TA muscles, FIG. 7", "value": "did not cause changes"}, {"measurement": "lower number of centrally nucleated fibers", "setting": "[4]; TSA-treated EDL muscles vs control", "value": 30, "unit": "%"}, {"measurement": "isometric twitch and tetanic strength of EDL muscles", "setting": "[4]; before and after normalization by crossectional area", "value": "significantly higher"}, {"measurement": "effect on body weight or the wet weight of skeletal muscles and organs", "setting": "[4]; compared to control-treated mice", "value": "did not affect"}, {"measurement": "EDL Tetanic force", "setting": "[4]; ex vivo EDL, treated mdx", "value": "351.9 ± 16.61", "unit": "mN"}, {"measurement": "EDL Twitch force", "setting": "[4]; ex vivo EDL, treated mdx", "value": "64.19 ± 4.22", "unit": "mN"}, {"measurement": "EDL Tetanic force (specific)", "setting": "[4]; [7]", "value": "166.0 ± 9.09", "unit": "mN/mm^2"}, {"measurement": "EDL Twitch force (specific)", "setting": "[4]; [7]", "value": "29.98 ± 1.84", "unit": "mN/mm^2"}, {"measurement": "serum creatine kinase or hydroxyproline content in TA and diaphragm muscles", "setting": "[4]; mouse, in vivo", "value": "No significant changes"}, {"measurement": "Diaphragm Hydroxyproline Diaphragm", "setting": "[4]; treated mdx", "value": "3.33 ± 0.22", "unit": "µg/mg"}, {"measurement": "Diaphragm Hydroxyproline TA", "setting": "[4]; treated mdx", "value": "0.90 ± 0.06", "unit": "µg/mg"}, {"measurement": "EDL CNF (centrally nucleated fibers)", "setting": "[4]; treated mdx", "value": "24.62 ± 2.30", "unit": "%"}, {"measurement": "EDL CSA (cross sectional area)", "setting": "[4]; treated mdx", "value": "2.20 ± 0.13", "unit": "mm^2"}, {"measurement": "EDL L0 (muscle length)", "setting": "[4]; treated mdx", "value": "12.16 ± 0.20", "unit": "mm"}, {"measurement": "Serum CK", "setting": "[4]; treated mdx", "value": "7450 ± 2381", "unit": "U/L"}, {"measurement": "EDL muscle weight", "setting": "[4]; [8]", "value": "17.5 ± 0.4", "unit": "mg"}, {"measurement": "Gastrocnemius muscle weight", "setting": "[4]; [8]", "value": "213.0 ± 11.0", "unit": "mg"}, {"measurement": "Heart weight", "setting": "[4]; [8]", "value": "159.7 ± 5.2", "unit": "mg"}, {"measurement": "Kidneys weight", "setting": "[4]; [8]", "value": "532.3 ± 25.8", "unit": "mg"}, {"measurement": "Liver weight", "setting": "[4]; [8]", "value": "1179.0 ± 36.4", "unit": "mg"}, {"measurement": "Quadriceps muscle weight", "setting": "[4]; [8]", "value": "234.6 ± 8.7", "unit": "mg"}, {"measurement": "Soleus muscle weight", "setting": "[4]; [8]", "value": "12.8 ± 0.4", "unit": "mg"}, {"measurement": "Tibialis Anterior (TA) muscle weight", "setting": "[4]; [8]", "value": "66.1 ± 1.5", "unit": "mg"}, {"measurement": "Body weight", "setting": "[4]; treated mdx, TSA 30 μg/kg i.p. alternate days, 3 months, mean ± SEM", "value": "30.2 ± 0.5", "unit": "g"}, {"measurement": "rotarod test performance", "setting": "[4]; treated vs control mdx", "value": "performed significantly better than control mdx"}, {"measurement": "EC50", "setting": "[5]; 4-parameter logistic fit of Z-scores, 24 h, no unit in table (0.013 = 13 nM), read-out: EC50 screen", "value": 0.013, "unit": "µM"}, {"measurement": "EC50", "setting": "[5]; read-out: EC50 score (1 to 4)", "value": "< 0.05", "unit": "µM"}, {"measurement": "EC50", "setting": "[5]; read-out: screening EC50", "value": 0.013, "unit": "µM"}, {"measurement": "Upper-lower limits scoren", "setting": "[5]; difference between upper and lower boundaries of the fitted dose-response screening curve", "value": 34.53}, {"measurement": "Fold diff", "setting": "[5]; fold difference between the EC50s of screening and counterscreening", "value": 119.82}, {"measurement": "IC50 in vitro", "setting": "[6]", "value": "nM to μM range"}]}
